Data: patent US20240336617A1, “Substituted Bimane Compounds and Methods of Use Thereof” (THE TRUSTEES OF THE UNIVERSITY OF PENNSYLVANIA, priority 2023, published 2024)
“Also recorded” adds a separate entry of the source.

Columns and labels:
[1] = molecular target: T1, amplified αS fibrils (AFs) from PDD patient brain extracts (Homo sapiens, UniProt P37840); experiment: Fluorescence measurements with PDD patient cases (lysate, AFs, PFFs); type: binding; details: lysate or AFs and probe 1 μM
T1 construct: made in house; host or cells: recombinant αS monomer, seeded with sarkosyl-insoluble extract of human frontal cortex (AD or PDD)
Experimental: All procedures were performed in accordance with local institutional review board guidelines. Written informed consent for autopsy and analysis of tissue sample data was obtained either from patients themselves or their next of kin. Frozen postmortem human frontal cortex brain tissues from three patients diagnosed with Alzheimer's disease (AD) and three patients diagnosed with Parkinson's disease with dementia (PDD) were selected for sequential extraction of αS aggregates based on a high burden of αS pathology determined by immunohistochemical staining. In brief, 5-10 g of frontal cortical gray matter were homogenized in five volumes (W/V) of high-salt (HS) buffer (50 mM Tris-HCl pH 7.4, 750 mM NaCl, 10 mM NaF, 5 mM EDTA) with protease and protein phosphatase inhibitors, incubated on ice for 20 min and centrifuged at 100,000×g for 30 min. The pellets were then re-extracted with HS buffer, followed by sequential extractions with five volumes of 1% Triton X-100-containing HS buffer and 1% Triton X-100-containing HS buffer with 30% sucrose. The pellets were then re-suspended and homogenized in 1% sarkosyl-containing HS buffer, rotated at room temperature for 2 h or at 4° C. overnight and centrifuged at 100,000×g for 30 min. […] These final sarkosyl-insoluble fractions are referred to as “brain extracts.: The amount of αS in the brain extracts was determined by sandwich ELISA using Syn9027, a mono-clonal antibody (Mab) to αS, and the protein concentrations were examined by bicinchoninic acid (BCA) assay. […]
(§1) Brain-derived αS aggregates in extract samples from three AD and three PDD cases (FIG. 38A) were used as seeds for templated aggregation of recombinant αS monomer. […] After seven days of incubation, amplification progress was determined by removing an aliquot and diluting tenfold in DPBS to a final αS concentration of 3.5 μM. […] Equal volumes of supernatant and pellet fractions were analyzed on SDS-PAGE gels and Western blot, with amplified aggregates migrating to the pellet fraction (FIG. 38B). […]

[2] = background statement; cited from earlier work
[3] = tested on: αS fibrils versus tau fibrils; experiment: Amyloid selectivity by plate reader, αS versus tau fibrils; type: binding
Experimental: Experiments were performed on the Tecan Spark in Greiner 96 well flat black ½ area plates using the following parameters: excitation and emission band widths 5 nm, lag time 0 μs, integration time 40 μs. A 10 mM DMSO stock solution of probes (7j-7m) and 100 μM stock of αS fibrils were used in the study described herein.

[4] = molecular target: T2, amplified αS fibrils (AFs) from AD patient brain extracts (Homo sapiens, UniProt P37840); experiment: Fluorescence measurements with AD patient cases (lysate, AFs, PFFs); type: binding; details: lysate or AFs and probe 1 μM
T2 construct: made in house; host or cells: recombinant αS monomer, seeded with sarkosyl-insoluble extract of human frontal cortex (AD or PDD)
Experimental: All procedures were performed in accordance with local institutional review board guidelines. Written informed consent for autopsy and analysis of tissue sample data was obtained either from patients themselves or their next of kin. Frozen postmortem human frontal cortex brain tissues from three patients diagnosed with Alzheimer's disease (AD) and three patients diagnosed with Parkinson's disease with dementia (PDD) were selected for sequential extraction of αS aggregates based on a high burden of αS pathology determined by immunohistochemical staining. […] These final sarkosyl-insoluble fractions are referred to as “brain extracts.: The amount of αS in the brain extracts was determined by sandwich ELISA using Syn9027, a mono-clonal antibody (Mab) to αS, and the protein concentrations were examined by bicinchoninic acid (BCA) assay. […]
as §1

Cc1ccc2c(c1)sc(-c1ccc(N(C)C)cc1)[n+]2C.[Cl-] [ThT, Thioflavin-T, reference compound]
fluorescence detection of PDD amplified fibrils (AFs) [1]: does not effectively detect these amplified fibrils; also recorded: unable to differentiate the lysates and AFs of PDD samples | Stokes shift [2]: ~50 nm | turn on with αS and tau fibrils [3]: high turn on with both αS and tau; also recorded: high turn-on with both αS and tau | fluorescence detection of AD amplified fibrils (AFs) [4]: barely registers significance for detection of AFs in AD samples
